# Experiment: Second oil phase obtained by adding NaCl to the water phase (Example 4)
# Type: physicochemical
# Conditions: after separating oil phases I and II
# Protocol: Cross linked polystyrene was used as adsorbent material. The volume flux for loading the adsorbent was 300 ml/min.
# The adsorbent was heated to 150 °C, the temperature of the applied water steam was 160 °C.
# The water steam flux was 10 g/min and was applied for 100 min.
# The oil and water phases were separated.
# A second oil phase was separated and was collected.
row,Compound,Loss in the water phase
1,CCC/C=C/CO [trans-2-hexenol],"6,0%"
2,CC(=O)OCC(C)C [2-methylpropyl acetate],"1,0%"
3,2-methyl propanol,"49,8%"
4,CCC(C)CO (stereo not drawn) [2-methyl butanol],"17,3%"
5,CC(C)CCO [3-methyl butanol],"17,9%"
6,O=Cc1ccccc1 [benzaldehyde],"19,2%"
7,CCCC(CC=O)OCC (stereo not drawn) [3-ethoxy-hexanal],"1,5%"
8,CC(=O)OCCc1ccccc1 [phenylethyl acetate],"0,0%"
9,CCCCCCOC(C)=O [hexyl acetate],"0,0%"

# Experiment: Influence of the amount of NaCl on the distribution between oil phase and water phase (Example 5)
# Type: physicochemical
# Conditions: NaCl 0%
Compound,Distribution in [%] between oil phase and water phase after condensation: Oil phase [%],Distribution in [%] between oil phase and water phase after condensation: Water phase [%]
CCC/C=C/CO [trans-2-hexenol],37.9,62.1
CC(=O)OCC(C)C [2-methylpropyl acetate],69.3,30.7
2-methyl propanol,17.1,82.9
CCOC(=O)CC [ethyl propionate],0,100
CCC(C)CO (stereo not drawn) [2-methyl butanol],30.8,69.2
CC(C)CCO [3-methyl butanol],28.4,71.6
O=Cc1ccccc1 [benzaldehyde],27,73
CCCC(CC=O)OCC (stereo not drawn) [3-ethoxy-hexanal],48.4,51.6
CC(=O)OCCc1ccccc1 [phenylethyl acetate],70.8,29.2
CCCCCCOC(C)=O [hexyl acetate],93.4,6.6

# Same assay, conditions: NaCl 27.8 %
Compound,Distribution in [%] between oil phase and water phase after condensation: Oil phase [%],Distribution in [%] between oil phase and water phase after condensation: Water phase [%]
CCC/C=C/CO [trans-2-hexenol],73.6,26.4
CC(=O)OCC(C)C [2-methylpropyl acetate],92.1,7.9
2-methyl propanol,29.7,70.3
CCOC(=O)CC [ethyl propionate],0,100
CCC(C)CO (stereo not drawn) [2-methyl butanol],69,31
CC(C)CCO [3-methyl butanol],39,61
O=Cc1ccccc1 [benzaldehyde],57.5,42.5
CCCC(CC=O)OCC (stereo not drawn) [3-ethoxy-hexanal],78.9,21.1
CC(=O)OCCc1ccccc1 [phenylethyl acetate],96.9,3.1
CCCCCCOC(C)=O [hexyl acetate],99.4,0.6

# Same assay, conditions: NaCl 41.67%
Compound,Distribution in [%] between oil phase and water phase after condensation: Oil phase [%],Distribution in [%] between oil phase and water phase after condensation: Water phase [%]
CCC/C=C/CO [trans-2-hexenol],82.6,17.4
CC(=O)OCC(C)C [2-methylpropyl acetate],96.2,3.8
2-methyl propanol,41,59
CCOC(=O)CC [ethyl propionate],0,100
CCC(C)CO (stereo not drawn) [2-methyl butanol],64.4,35.6
CC(C)CCO [3-methyl butanol],63.1,36.9
O=Cc1ccccc1 [benzaldehyde],64.7,35.3
CCCC(CC=O)OCC (stereo not drawn) [3-ethoxy-hexanal],89,11
CC(=O)OCCc1ccccc1 [phenylethyl acetate],98,2
CCCCCCOC(C)=O [hexyl acetate],100,0

# Same assay, conditions: NaCl 55.56 %
Compound,Distribution in [%] between oil phase and water phase after condensation: Oil phase [%],Distribution in [%] between oil phase and water phase after condensation: Water phase [%]
CCC/C=C/CO [trans-2-hexenol],88.4,11.6
CC(=O)OCC(C)C [2-methylpropyl acetate],97.5,2.5
2-methyl propanol,42.8,57.2
CCOC(=O)CC [ethyl propionate],0,100
CCC(C)CO (stereo not drawn) [2-methyl butanol],70.6,29.4
CC(C)CCO [3-methyl butanol],69.7,30.3
O=Cc1ccccc1 [benzaldehyde],70.4,29.6
CCCC(CC=O)OCC (stereo not drawn) [3-ethoxy-hexanal],94.6,5.4
CC(=O)OCCc1ccccc1 [phenylethyl acetate],100,0
CCCCCCOC(C)=O [hexyl acetate],100,0

# Same assay, conditions: NaCl 69.44 %
Compound,Distribution in [%] between oil phase and water phase after condensation: Oil phase [%],Distribution in [%] between oil phase and water phase after condensation: Water phase [%]
CCC/C=C/CO [trans-2-hexenol],91.7,8.3
CC(=O)OCC(C)C [2-methylpropyl acetate],98.6,1.4
2-methyl propanol,45.9,54.1
CCOC(=O)CC [ethyl propionate],0,100
CCC(C)CO (stereo not drawn) [2-methyl butanol],82.5,17.5
CC(C)CCO [3-methyl butanol],68.9,31.1
O=Cc1ccccc1 [benzaldehyde],76.7,23.3
CCCC(CC=O)OCC (stereo not drawn) [3-ethoxy-hexanal],97.4,2.6
CC(=O)OCCc1ccccc1 [phenylethyl acetate],100,0
CCCCCCOC(C)=O [hexyl acetate],100,0

# Same assay, conditions: NaCl 83.33 %
Compound,Distribution in [%] between oil phase and water phase after condensation: Oil phase [%],Distribution in [%] between oil phase and water phase after condensation: Water phase [%]
CCC/C=C/CO [trans-2-hexenol],94,6
CC(=O)OCC(C)C [2-methylpropyl acetate],99,1
2-methyl propanol,50.2,49.8
CCOC(=O)CC [ethyl propionate],0,100
CCC(C)CO (stereo not drawn) [2-methyl butanol],82.7,17.3
CC(C)CCO [3-methyl butanol],82.1,17.9
O=Cc1ccccc1 [benzaldehyde],80.8,19.2
CCCC(CC=O)OCC (stereo not drawn) [3-ethoxy-hexanal],98.5,1.5
CC(=O)OCCc1ccccc1 [phenylethyl acetate],100,0
CCCCCCOC(C)=O [hexyl acetate],100,0

# Reference: EP3959993B1, “METHOD FOR SOLVENT FREE PRODUCTION OF AROMA CONCENTRATES” (Symrise AG, priority 2020, dated 2022)
